For the test, the target named is Endoplasmic reticulum aminopeptidase 2 (Homo sapiens, UniProt Q6P179). Nature of the test: Activation of ERAP2 (unknown origin)-mediated Arg-AMC substrate hydrolysis after 60 mins by Rapidfire-MS analysis.

Here are results for one compound from ChEMBL document CHEMBL4354860, “Targeting the Regulatory Site of ER Aminopeptidase 1 Leads to the Discovery of a Natural Product Modulator of Antigen Presentation” (J Med Chem, 2020).

pIC50: −log10 of the molar value. Where only a bound is given, the exact number is not on record here.

As a reminder, the pIC50 is the negative decadic logarithm of the IC50, by convention in mol/L.

Chain of Endoplasmic reticulum aminopeptidase 2 (Q6P179 whole entry): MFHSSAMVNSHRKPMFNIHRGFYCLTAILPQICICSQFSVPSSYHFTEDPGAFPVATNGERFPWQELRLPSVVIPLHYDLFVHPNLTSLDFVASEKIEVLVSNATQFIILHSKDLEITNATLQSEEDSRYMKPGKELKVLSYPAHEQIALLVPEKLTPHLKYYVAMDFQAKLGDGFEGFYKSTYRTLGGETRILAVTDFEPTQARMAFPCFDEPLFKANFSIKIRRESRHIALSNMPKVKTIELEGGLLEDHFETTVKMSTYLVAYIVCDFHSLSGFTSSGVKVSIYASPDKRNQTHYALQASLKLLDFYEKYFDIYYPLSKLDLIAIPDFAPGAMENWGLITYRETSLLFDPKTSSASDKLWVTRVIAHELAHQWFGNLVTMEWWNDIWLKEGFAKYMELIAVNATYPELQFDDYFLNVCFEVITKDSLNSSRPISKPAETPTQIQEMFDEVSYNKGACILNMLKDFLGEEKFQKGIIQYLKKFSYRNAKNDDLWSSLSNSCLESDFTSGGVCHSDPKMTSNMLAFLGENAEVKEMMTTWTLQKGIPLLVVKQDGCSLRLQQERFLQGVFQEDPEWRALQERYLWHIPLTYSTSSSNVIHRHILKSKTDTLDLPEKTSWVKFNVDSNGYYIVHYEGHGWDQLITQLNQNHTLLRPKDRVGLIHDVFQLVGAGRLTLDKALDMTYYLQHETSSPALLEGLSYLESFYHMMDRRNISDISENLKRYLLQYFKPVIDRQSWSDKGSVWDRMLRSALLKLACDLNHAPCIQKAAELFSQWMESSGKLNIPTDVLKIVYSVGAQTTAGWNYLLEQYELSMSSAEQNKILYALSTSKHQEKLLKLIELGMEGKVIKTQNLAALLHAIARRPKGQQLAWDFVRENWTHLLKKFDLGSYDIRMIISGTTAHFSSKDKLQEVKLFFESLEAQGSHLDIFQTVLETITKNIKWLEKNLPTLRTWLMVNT

The compound `C[C@@H]1C[C@H](O)[C@@]2(C)C(C(=O)O)=CCC[C@@H]2[C@@]1(C)CCc1ccoc1` showed a pIC50 below 3.80.
